Measurements as given in patent US12263198B1, “Compositions and methods of improving ruminant performance” (Ralco Nutrition, Inc., priority 2021, dated 2025).
Marks after values point to notes of the source that are not given here.

Tested on: rumen fluid
Assay: ANKOM artificial rumen system, dry matter digestibility of hay
Format: cell-based, steers
Details: 24 hours
Procedure: This study was conducted to evaluate the feed additive composition in an ANKOM artificial rumen system to compare digestibility of a feed additive of a cobalt lactate/yeast blend, relative to a feed additive of only cobalt lactate and a feed additive of only yeast. In each run, two cannulated steers were used to collect rumen fluid from the two steers at the Ralco Beef Research Farm in Marshall, MN. The rumen fluid was mixed with a buffer solution along with a different feed additive composition in each of three jars and a fourth jar having a control with no treatment. Eight runs were performed at differing amounts of cobalt lactate, yeast, and blends of cobalt lactate and yeast, as shown in each of the tables below. The cobalt lactate used in Runs 1-8 was Microbial Catalyst® from Ralco. The yeast used in Runs 1-8 was Emprove MX from Emmert.
Dacron bags with hay (Barley straw, DM 94.2, CP 5.4, ADF 54.15, NDF 75.6, Neg/cwt 17.7 and Nem/cwt 42.5 respectively) samples were then added to each jar, the jar was purged with CO2 and incubated for 24 hours at 39.5 degrees C. At the end of the 24 hours, the bags were removed, washed with clear tap water and run through the ANKOM fiber analyzer. At that point, the bags were dried and re-weighed, and the weight entered into formulas to give a dry matter digestibility value.
In this study a similar analysis was performed as in Example 5. In this example, Formulation A (used in Runs 6-8) was compared to Product 1 (Diamond V XPC®) and Product 2 (Amaferm® from BioZyme). The protocol used in this example is the same as that provided above for Example 5.

Question: Which DMD (Run 1, 3.0 g) does the source give for `CC(O)C(=O)[O-].CC(O)C(=O)[O-].[Co+2]` (centres unmarked) [cobalt lactate] here?
Answer: The DMD was 54.37^b.

Question: And the DMD (Run 2, 6.0 g)?
Answer: The DMD was 57.04^b.

Question: What about the DMD (Run 3, 3.0 g) of the same compound?
Answer: The DMD was 61.87^b.

Question: And the DMD (Run 4, 3.0 g)?
Answer: Its DMD is 61.83^c.

Question: And the DMD (Run 5, 3.0 g)?
Answer: Its DMD is 64.59^c.

Question: What about the DMD (Run 6, 3.0 g) of the same compound?
Answer: The DMD was 62.41^c.

Question: What about the DMD (Run 7, 3.0 g) of the same compound?
Answer: Its DMD is 62.17^b.

Question: What about the DMD (Run 8, 3.0 g) of the same compound?
Answer: Its DMD is 66.71^c.
